Where two headings read alike, the source gives them in different places. Values belong to the compound of their own block, whether it stands above or below them.
Legend:
EAE mouse model = conditions: for reduction in the EAE clinical score: relative to vehicle
Procedure: The CSF1R ECD fusion molecules were also tested for their ability to inhibit MS disease pathology in a mouse model of MS. These experiments used the mouse experimental autoimmune encephalomyelitis (EAE) model, which is widely used as a model of MS in humans. See, for example, Steinman and Zamvil, TRENDS in Immunology, 26(11):565-571 (2005). In the EAE model, disease progression and associated pathology may be measured according to the following EAE clinical score: no clinical disease (Score: 0); tail flaccidity (Score: 1); hind limb weakness (Score: 2); hind limb paralysis (Score: 3); forelimb paralysis or loss of ability to right from supine (stand up from a supine position) (Score: 4); and moribund (near death) or dead (Score: 5). […] The mCSF1R.506-Fc fusion protein (m506) was tested to determine whether it could decrease the EAE clinical scores or body weight loss. The mCSF1R.506-Fc fusion protein (SEQ ID NO.:8) was expressed and purified from the culture media of CHO cells stably transfected with the mCSF1R.506-Fc/pDEF38 plasmid vector as described in Example 2.
For the EAE mouse model experiments, 60 female C57BL/6 mice, age […], were divided into five groups: • Group 1: Vehicle control (Vehicle) (phosphate buffered saline, PBS), 100 μl, i.p., 3 times a week for up to 7 weeks; • Group 2: Methotrexate positive control (MTX), 10 mg/kg, i.v., q3d for up to 7 weeks; • Group 3: mCSF1R.506-Fc, 1 mg/kg, i.p., 3 times a week for up to 7 weeks; • Group 4: mCSF1R.506-Fc, 10 mg/kg, i.p., 3 times a week for up to 7 weeks; • Group 5: mCSF1R.506-Fc, 20 mg/kg, i.p., 3 times a week for up to 7 weeks.
Each group consisted of 12 mice. EAE induction was performed according to the following protocol: 300 ug of myelin oligodendrocyte glycoprotein (MOG)35-55 peptide was dissolved in 100 ul PBS and emulsified in an equal volume of complete Freund's adjuvant (CFA) containing 5 mg/ml Mycobacterium tuberculosis H37 RA. The emulsion (200 ul) was injected subcutaneously into the flank of the mice on days 0 and 7. Pertussis toxin (500 ng in 500 ul of PBS; List Biological Labs) was administered intravenously into each tail vein on days 0 and 2.
The MTX (10 mg/kg) was administered intravenously once every 3 days (q3d) for up to seven weeks starting on day 0; mCSF1R.506-Fc (1 mg/kg, 10 mg/kg, or 20 mg/kg), or vehicle (PBS) was administered intraperitoneally to the EAE mice in a 0.2 ml volume three times per week for 45 days, starting on day 0. The EAE clinical scores were measured prior to each dosing of PBS, MTX, or mCSF1R.506-Fc, using the above-mentioned scoring system. Body weights were recorded on day 0 before treatment was initiated, and were then measured at least twice per week including the day the study was terminated for seven weeks (on days 0, 2, 6, 8, 10, 13, 16, 17, 20, 22, 24, 27, 29, 31, 34, 36, 38, 41, 43, and 45).

CIA mouse model [1] = test: Mouse collagen-induced arthritis (CIA) model, Example 9; format: in vivo; conditions: relative to vehicle, p<0.01
CIA mouse model [2] = test: Mouse collagen-induced arthritis (CIA) model, Example 13 (clinical score, histology, serum PYD); format: in vivo; conditions: for clinical arthritis scores: FIG. 9; for serum pyridinoline (PYD) levels: vs vehicle control, ELISA, FIG. 12
[3] = tested on: CD115+ GR1- monocytes in the spleen; test: Depletion of CD115+ GR1- monocytes from spleen (flow cytometry); format: in vivo, mouse; conditions: DBA1 mice, 20 mg/kg i.p. 3 times per week, two weeks
Procedure: Male DBA1 mice were administered i.p. 3 times per week with saline or mCSF1R.506-Fc protein (SEQ ID NO:34) at 20 mg/kg. After two weeks of treatment, spleens were harvested for analysis of monocytes by flow cytometry as described (Liu et al., Science 324: 392 (2009)). Cells were stained at 4° C. in PBS with 5% (vol/vol) FBS. An LSR II (Becton Dickinson) was used for multiparameter flow cytometry of stained cell suspensions, followed by analysis with FlowJo software (TreeStar).

CSF1 = molecular target: T1, CSF1 (Homo sapiens, UniProt P09603); test: Biacore SPR CSF1 ligand binding affinity and kinetics; conditions: proteins expressed in CHO cells; Biacore (Table 4)
T1 sequence (P09603 33-554): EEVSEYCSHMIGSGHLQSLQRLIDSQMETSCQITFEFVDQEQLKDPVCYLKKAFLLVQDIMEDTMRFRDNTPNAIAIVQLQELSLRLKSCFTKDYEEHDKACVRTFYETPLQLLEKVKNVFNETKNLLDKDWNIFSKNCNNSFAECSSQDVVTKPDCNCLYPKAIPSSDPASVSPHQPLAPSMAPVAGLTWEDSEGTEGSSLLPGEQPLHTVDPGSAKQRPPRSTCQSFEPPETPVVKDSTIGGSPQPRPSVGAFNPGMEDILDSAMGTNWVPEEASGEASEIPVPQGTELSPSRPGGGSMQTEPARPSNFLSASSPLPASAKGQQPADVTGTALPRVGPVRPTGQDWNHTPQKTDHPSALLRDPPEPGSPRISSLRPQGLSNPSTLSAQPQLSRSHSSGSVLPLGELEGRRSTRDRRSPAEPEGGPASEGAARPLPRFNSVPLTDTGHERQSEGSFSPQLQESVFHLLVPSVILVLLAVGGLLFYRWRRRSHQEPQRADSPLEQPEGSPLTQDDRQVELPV
Procedure: The CSF1 and IL34 ligand binding affinity and kinetics of the hCSF1R.506-GS-Fc and hCSF1R.512-GS-Fc fusion proteins were determined using Biacore® X surface plasmon resonance (SPR) technology (Uppsala, Sweden). CSF1 and IL34 are the only two ligands known to interact with the CSF1R ECD. The CSF1 and IL34 binding experiments were carried out using methodology similar to that described in Lin et al., Science 320:807-811, (2008).
In order to compare the relative ligand binding affinity of hCSF1R.506 (SEQ ID NO:2) and hCSF1R.506-Fc (SEQ ID NO:6) proteins expressed in CHO cells to CSF1, a Biacore® assay was used.

[4] = tested on: peripheral blood monocytes (F4/80+, CD11b+); test: Depletion of mouse monocytes from peripheral blood after minicircle DNA tail vein transfection; format: in vivo; conditions: C57BL/6 mouse; 30 ug minicircle DNA by hydrodynamic tail vein transfection; about three weeks; vs saline
Procedure: The mCSF1R.506-GS-Fc fusion protein (SEQ ID NO.:34) was expressed in vivo to determine whether it could deplete mouse monocytes from peripheral blood as a measure of in vivo biological activity. For these experiments, the minicircle DNA vector (mCSF1R.506-GS-Fc/p2xC31MasterSfi) containing the polynucleotides encoding mCSF1R.506-GS-Fc described in Example 1 was employed. For these experiments, 30 ug of CSF1R.506-GS-Fc-encoding minicircle DNA was injected into a C57BL/6 mouse tail vein by hydrodynamic tail vein transfection (TVT) as described (Ozaki et al., J Immunol, 173(9):5361-5371 (2004)). Saline was injected as a negative control. Approximately three weeks after the tail vein injection, peripheral blood cells were isolated and monocyte levels were determined using FACS analysis with anti-CD11b and anti-F4/80 antibodies according to the manufacturer's instruction (BD Biosciences) to detect monocyte marker-positive cells (F4/80^+, CD11b^+).

human primary monocytes = test: Human monocyte viability (CellTiter-Glo ATP); format: cell-based; conditions: four days incubation; ATP levels; protein from 293-6E cells; read-out: IC50, inhibition of human monocyte viability
Procedure: Primary monocytes were isolated from human peripheral blood mononuclear cells (PBMC) through size sedimentation over Percoll columns as described (de Almeida et al., Mem Inst Oswaldo Cruz 95(2):221-223, (2000)). In this experiment, 1×10^4 freshly isolated human primary monocytes per well of a 96-well plate were incubated with the hCSF1R.506-GS-Fc or hCSF1R.512-GS-Fc fusion protein (0.01-120 nM) and the cells were incubated at 37° C. with 5% CO2. After four days, ATP levels in the cells were determined using the CellTiter-Glo Luminescent Cell Viability Assay Kit (Promega, Cat. No. G7571), according to the manufacturer's instructions, as a measurement of cell viability.

Compound: CN(Cc1cnc2nc(N)nc(N)c2n1)c1ccc(C(=O)N[C@@H](CCC(=O)O)C(=O)O)cc1 [MTX, Methotrexate, reference compound]
- reduction in the EAE clinical score (EAE mouse model; 10 mg/kg i.v. q3d, p<0.001): 95%

Compound: mCSF1R.506-Fc: Mouse CSF1R ECD lacking the five C-terminal residues fused to an Fc; SEQ ID NO. 8
- reduction in the EAE clinical score (EAE mouse model; 1 mg/kg i.p. 3 times a week, p<0.001): 55%
- reduction in the EAE clinical score (EAE mouse model; 10 mg/kg i.p. 3 times a week, p<0.01): 40%
- reduction in the EAE clinical score (EAE mouse model; 20 mg/kg i.p. 3 times a week, p<0.001): 78%
- higher body weight relative to vehicle control (EAE mouse model; EAE mice, average of three doses (1, 10, 20 mg/kg), p<0.01-0.001): 8%
- reduction of CIA arthritis score (CIA mouse model [1]; 20 mg/kg i.p. daily for 34 days): about 75%
- inflammation, pannus formation, cartilage damage, bone resorption scores (CIA mouse model [2]; 2 mg/kg, 6 mg/kg and 20 mg/kg, compared to vehicle treated mice, FIG. 11): significantly decreased inflammation, pannus formation, cartilage damage, and bone resorption
- clinical arthritis scores (CIA mouse model [2]; 2, 6 and 20 mg/kg i.p., dose-dependent): significantly reduced clinical arthritis scores
- pannus formation, cartilage damage, bone resorption in histologic joint sections (CIA mouse model [2]; CIA mice, FIG. 10): significantly decreased pannus formation, cartilage damage, and bone resorption
- serum pyridinoline (PYD) levels (CIA mouse model [2]; CIA mice): significantly lower
- decrease in number of CD115+GR1- cells per spleen ([3]; FIG. 14): more than 50%
- CD115+GR1- monocytes in the spleen ([3]; vs saline, FIG. 13): significant reduction

- Kd (CSF1): 28.9 nM
- ka, binding to CSF1 (CSF1): 2.80E+04 l/Ms
- kd, binding to CSF1 (CSF1): 0.000809 s⁻¹
Compound: hCSF1R.506: human CSF1R ECD corresponding to SEQ ID NO.:2 (amino acids 1-506), without fusion partner

Compound: mCSF1R.506-GS-Fc: Mouse CSF1R ECD lacking the five C-terminal residues fused to GS-Fc; SEQ ID NO. 34
- monocyte marker-positive cells (F4/80+, CD11b+) in peripheral blood [4]: depletion of mouse monocytes from peripheral blood

Compound: ENBREL® [reference compound]
- inhibition of CIA arthritis score (CIA mouse model [1]; 10 mg/kg i.p. twice weekly for 34 days): about 40%
- clinical arthritis scores (CIA mouse model [2]; 10 mg/kg i.p. daily): inhibited clinical scores
- serum pyridinoline (PYD) levels (CIA mouse model [2]; CIA mice): not significant statistically

Compound: hCSF1R.506-GS-Fc: Human CSF1R ECD lacking the six C-terminal residues fused to GS-Fc; SEQ ID NO. 32
- IC50 (human primary monocytes): 8.8 nM

Compound: hCSF1R.512-GS-Fc: Full-length human CSF1R ECD fused to GS-Fc; SEQ ID NO. 31
- IC50 (human primary monocytes): 17.5 nM

Source: patent US8080246B2, “Colony stimulating factor 1 receptor (CSF1R) extracellular domain fusion molecules” (Five Prime Therapeutics, Inc., priority 2008, dated 2011)
